This note sets out measurements from publication PMC7259601 (PLoS ONE, 2020).

Assay [1] relates to guanylyl cyclase (h) (activator effect). Kind of assay: CEREP Diversity Panel. The format is biochemical, human. Further details: dose or concentration left out as unconfirmed. The method, then:
[…]. MAO-A inhibition at 10 μM was 37%, in line with internal data.

The subject of assay [2] is FAD cofactor (in KDM1A or free). Kind of assay: KDM1A binding analysis (FAD absorbance at 450 nm). As for the experimental part:
Analysis of binding of inhibitors to KDM1A was as previously described [22](Yang et al., 2007) with minor modifications. The binding to FAD (present in the enzyme or free) was analyzed by measuring the decrease in absorbance at 450nm in a Tecan Infinite F200 microplate reader. Briefly, KDM1A enzyme was mixed with the inhibitor (without substrate) and the absorbance at 450nm was compared with the absorbance of the KDM1A enzyme without inhibitor. The reaction is monitored during 30 min and values used to calculate Kobs.
Absorbance at 450 nm was measured as described and Kobs was calculated following the equation: […]

For a further assay, the target named is brain MAO-A (Mus musculus, UniProt Q64133). Put plainly: in vivo. As for the experimental part: Male CD1 mice (8 weeks of age, 25-30 g) procured from Charles River were housed in the same conditions as in Ex vivo assay of MAO-A inhibition section.
Ex-vivo MAO-A activity was measured essentially as previously described . […] Brain samples were weighed and then thawed and homogenised in 20 volumes of homogenisation buffer after which MAO-A activity was measured. […] Enzyme activity was corrected by subtracting an assay buffer blank and initially expressed in units of nmoles substrate/min. The protein concentration of the homogenates was measured and used to express final enzyme activity in units of nmoles/min/mg protein. All results are expressed as a mean of duplicate determinations. Brains from animals treated acutely were assayed on a different day to those treated for 5 days (chronically).
MAO-A activity was determined using serotonin creatinine sulphate [2-^14C] as outlined above. Raw enzyme activity values (in nmoles substrate/min) were corrected by subtracting an assay buffer blank and were normalized to the total protein concentration (in nmoles/min/mg protein). All results are means of duplicate determinations. Different drug treatments were compared by Oneway-ANOVA with Dunnett analysis.

Assay [3] deals with KDM1A. Kind of assay: KDM1A target engagement in brain cortex (chemoprobe ELISA). The assay is classed as in vivo, SAMP8 mice. As to conditions: end of 2 month treatment. The method, then: Native protein extracts of cells or tissues were obtained in presence of 25 nM OG-881 chemoprobe according the protocol described in Mascaró et al..
Luminescent ELISA: for quantification of total amount of KDM1A protein (TOTAL KDM1A), Luminunc Plates Maxisorp (NUNC; #436110) were coated with a monoclonal anti-KDM1A antibody (Abcam; #ab53269) at 2 µg/mL in PBS. For quantification of the fraction not bound to inhibitor (FREE KDM1A), plates were coated with streptavidin (Promega Biotech Ibérica; #Z7041) at 10 µg/mL in PBS. Coating was performed at 4°C O/N. Wells were washed 3 times in PBS, 0.1% Tween-20 and blocked with PBS-BSA 1% (Sigma; #A3059) for 2 hr. A KDM1A calibration curve of full length rKDM1A (Active Motif; #31334) diluted in PBS was included in each plate. Plates were then incubated 1 hr at RT and washed 5 times. […] Plates were centrifuged during 30 sec to 1,500 x g, shaken for 1 min at 100rpm and incubated inside the micropate reader (Infinite 200, Tecan) for 3 min at 25 °C. The relative luminescence units (RLU) readouts were acquired using a 1000 msec integration time and 150 msec settle time.
All assays were run as triplicate technical replicates (n = 3). After raw data processing (robust elimination of outliers according to Grubbs criteria and subtraction of blank signal on technical replicates), the target engagement was calculated as […]

The target in the next assay is T1, Human recombinant MAO-A (Homo sapiens, UniProt P21397).
T1 construct: purchased Sigma Aldrich M7316
Kind of assay: MAO-A kynuramine fluorescent assay. To be noted: S1 Table A. The assay is classed as biochemical. As for the experimental part:
Human recombinant monoamine oxidase proteins MAO-A and MAO-B (Sigma Aldrich, M7316 and M7441) were used to monitor the MAO enzymatic activities in a fluorescent assay using kynuramine as a substrate. […] Enzymatic reaction was initiated by the addition of specific KM Kynuramine and incubated 1 hr at 37 °C. The oxidative deamination of the substrate was stopped by adding NaOH 2N (v/v). The conversion of kynuramine to 4-hydroxyquinoline by MAOs was monitored by fluorescence (λex = 320 nm, λem = 360 nm) using a microplate reader.

In another assay the target is T2, rKDM1A (Homo sapiens, UniProt O60341).
T2 construct: purchased BPS Bioscience 50100
Put plainly: Kinetics of inhibition of KDM1A. The assay is classed as biochemical. As to conditions: pure recombinant enzyme, H3K4me2 peptide. As for the experimental part: Time course experiments were performed to assess the rate of inhibition of demethylation of a H3K4me2 peptide mediated by rKDM1A, monitoring the release of H2O2 produced during the reaction using a coupled horseradish peroxidase assay using Amplex Red reagent as a substrate. Conditions were the same as for IC50 determinations, but all reagents were added simultaneously.

Assay [4] has as its target KDM1A (Homo sapiens, UniProt O60341). Put plainly: MALDI-TOF mass spectrometry of FAD-ORY-2001 adducts. The assay is classed as binding. As for the experimental part:
The sample was initially purified by reversed phase chromatography in a ZipTipC18 pipette tip (Millipore, USA) wet using column and equilibrated with 0.1% TFA. The sample was bound to the column by repeated aspiring and dispensing to achieve maximum binding. The ZipTip pipette tip was washed three times with 0.1% TFA and eluted in 4 µl. of 50 % ACN/ 0.1% TFA. 1 µl of eluted sample was loaded onto an AnchorChip MALDI target (Bruker, Germany); 2 µl. of matrix solution (0.3 mg/ml HCCA -alpha-cyano-4-hydroxycinamic acid in EtOH/acetone 2:1) was added and the mixture was allowed to dry at room temperature. The sample preparations were analyzed in an AutoFlex Speed MALDI TOF/TOF mass spectrometer (Bruker, Germany), equipped with a Nd:YAG laser. MS spectra were acquired in Reflector mode, with either positive or negative polarity. MSMS post source-decay fragmentation spectra of selected precursor ions were obtained using the LIFT module (Bruker, Germany).

Chain of brain MAO-A (Q64133 whole entry): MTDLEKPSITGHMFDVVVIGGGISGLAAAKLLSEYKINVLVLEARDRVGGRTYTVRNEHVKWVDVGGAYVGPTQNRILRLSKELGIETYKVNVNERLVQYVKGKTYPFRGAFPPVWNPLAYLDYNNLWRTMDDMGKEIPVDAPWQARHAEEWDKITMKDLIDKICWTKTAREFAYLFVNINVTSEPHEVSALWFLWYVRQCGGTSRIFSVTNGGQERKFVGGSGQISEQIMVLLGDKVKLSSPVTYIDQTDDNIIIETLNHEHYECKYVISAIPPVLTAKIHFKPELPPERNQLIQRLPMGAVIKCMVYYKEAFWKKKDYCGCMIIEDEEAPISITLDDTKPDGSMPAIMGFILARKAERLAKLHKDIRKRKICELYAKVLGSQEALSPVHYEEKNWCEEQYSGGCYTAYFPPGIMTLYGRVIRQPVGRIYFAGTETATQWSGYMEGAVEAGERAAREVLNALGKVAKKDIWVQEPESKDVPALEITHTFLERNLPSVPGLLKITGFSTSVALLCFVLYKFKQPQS
T1 sequence (P21397 whole entry): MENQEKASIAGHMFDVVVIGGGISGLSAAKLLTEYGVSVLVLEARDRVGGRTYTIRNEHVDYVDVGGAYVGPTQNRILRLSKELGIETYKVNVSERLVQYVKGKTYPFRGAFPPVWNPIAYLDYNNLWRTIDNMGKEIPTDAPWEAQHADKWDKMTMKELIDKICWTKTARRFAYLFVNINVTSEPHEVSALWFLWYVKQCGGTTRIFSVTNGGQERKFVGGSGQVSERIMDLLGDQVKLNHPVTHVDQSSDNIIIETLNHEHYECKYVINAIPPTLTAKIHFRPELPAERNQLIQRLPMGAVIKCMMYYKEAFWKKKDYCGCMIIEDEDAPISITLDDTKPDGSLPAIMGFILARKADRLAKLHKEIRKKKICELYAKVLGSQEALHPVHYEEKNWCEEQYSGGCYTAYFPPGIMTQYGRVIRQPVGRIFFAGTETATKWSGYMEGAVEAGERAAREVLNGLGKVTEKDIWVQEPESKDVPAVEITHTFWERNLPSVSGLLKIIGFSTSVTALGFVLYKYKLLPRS

As for `Nc1nnc(CN[C@@H]2C[C@H]2c2ccc(OCc3ccccc3)cc2)o1` [ORY-2001, vafidemstat], in assay [1], the “% inhibition” value was 1%. The “binding to free FAD” value in assay [2] is “does not bind free FAD”. In assay [2] (absorbance spectrum and MALDI-TOF), the “mode of inhibition of KDM1A (FAD cofactor)” value is on record as “covalent binding”. The “ex vivo brain MAO-A inhibition, acute setting” value on brain MAO-A (mice, acute 1 to 100 mg/kg p.o. gavage) is on record as “only the 100 mg/kg dose led to a significant inhibition”. Further, the median effective dose (ED50) on brain MAO-A (mouse, po, read-out: ED50 ex vivo brain MAO-A inhibition) was roughly 10 mg/kg. For the same compound, in the assay with KDM1A [3], the “KDM1A target engagement in cortex” value is recorded as “correlated with the observed functional effects on memory”. Besides, at Human recombinant MAO-A, the IC50 amounted to 5.47 ± 0.3 µM. Also, the KI (inactivation) at rKDM1A stood at 1.8 µM. In addition, the “adduct formation with KDM1A” value on KDM1A [4] is recorded as “adduct formation”.
